Measurements as given in patent publication US8013156B2 (Exelixis, Inc., priority 2003, dated 2011).

target: Tie-2 (Homo sapiens, UniProt Q02763); assay: Tie-2 tyrosine kinase activity assay (luciferase/luciferin ATP consumption with pEY substrate, or 33P-ATP incorporation); format: biochemical; conditions: human enzyme Tie-2
In short: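 Values are IC50 categories (A <50 nM to D ≥10,000 nM), with Ki obtainable by fitting rates to a tight-binding model. Assay formats: 33P-ATP phosphate transfer to adsorbed generic substrate counted by scintillation, or luciferase-detected ATP depletion using pEY.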

Sequence of Tie-2 (Q02763 23-1124): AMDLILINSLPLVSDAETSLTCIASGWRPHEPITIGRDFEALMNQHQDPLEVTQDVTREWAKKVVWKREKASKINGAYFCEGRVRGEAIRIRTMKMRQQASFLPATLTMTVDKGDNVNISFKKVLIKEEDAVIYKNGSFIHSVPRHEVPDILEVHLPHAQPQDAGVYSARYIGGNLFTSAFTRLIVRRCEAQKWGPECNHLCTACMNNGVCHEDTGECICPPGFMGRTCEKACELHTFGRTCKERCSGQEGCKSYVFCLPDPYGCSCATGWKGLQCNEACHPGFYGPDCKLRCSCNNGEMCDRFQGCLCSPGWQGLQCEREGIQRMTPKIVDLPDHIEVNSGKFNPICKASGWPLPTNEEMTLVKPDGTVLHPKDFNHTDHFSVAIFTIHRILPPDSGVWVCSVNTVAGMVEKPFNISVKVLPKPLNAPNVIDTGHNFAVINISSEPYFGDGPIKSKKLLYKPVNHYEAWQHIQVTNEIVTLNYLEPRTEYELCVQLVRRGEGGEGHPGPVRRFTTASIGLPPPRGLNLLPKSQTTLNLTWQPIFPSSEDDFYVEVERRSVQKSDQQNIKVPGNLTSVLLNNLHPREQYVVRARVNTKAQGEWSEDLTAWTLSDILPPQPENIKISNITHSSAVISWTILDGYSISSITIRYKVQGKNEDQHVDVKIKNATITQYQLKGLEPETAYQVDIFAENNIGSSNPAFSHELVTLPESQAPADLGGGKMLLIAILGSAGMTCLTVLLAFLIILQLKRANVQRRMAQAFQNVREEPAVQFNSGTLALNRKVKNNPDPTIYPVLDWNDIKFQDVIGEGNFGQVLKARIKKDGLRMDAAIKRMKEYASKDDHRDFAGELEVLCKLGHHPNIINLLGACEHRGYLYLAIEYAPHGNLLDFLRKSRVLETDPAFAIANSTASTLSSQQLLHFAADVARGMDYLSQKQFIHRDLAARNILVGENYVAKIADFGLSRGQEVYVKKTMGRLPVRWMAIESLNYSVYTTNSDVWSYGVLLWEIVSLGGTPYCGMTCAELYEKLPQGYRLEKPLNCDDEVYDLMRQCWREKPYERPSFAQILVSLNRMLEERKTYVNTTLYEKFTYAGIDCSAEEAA

Structure (SMILES)	IC50
CCOC(=O)Nc1cc(COc2nsnc2N2CCN(C(=O)Nc3cc(C(F)(F)F)cc(C(F)(F)F)c3)CC2)ccn1 [Example 153, ethyl {4-[({4-[4-({[3,5-bis(trifluoromethyl)phenyl]amino}carbonyl)piperazin-1-yl]-1,2,5-thiadiazol-3-yl}oxy)methyl]pyridin-2-yl}carbamate]	< 50 nM
O=C(CN1CCCC1)Nc1cc(COc2nsnc2N2CCN(C(=O)Nc3cc(C(F)(F)F)cc(C(F)(F)F)c3)CC2)ccn1 [Example 154, N-[3,5-bis(trifluoromethyl)phenyl]-4-{4-[({2-[(pyrrolidin-1-ylacetyl)amino]pyridin-4-yl}methyl)oxy]-1,2,5-thiadiazol-3-yl}piperazine-1-carboxamide]	< 50 nM
CN1CCN(CC(=O)Nc2cc(COc3nsnc3N3CCN(C(=O)Nc4cc(C(F)(F)F)cc(C(F)(F)F)c4)CC3)ccn2)CC1 [Example 155, N-[3,5-bis(trifluoromethyl)phenyl]-4-(4-{[(2-{[(4-methylpiperazin-1-yl)acetyl]amino}pyridin-4-yl)methyl]oxy}-1,2,5-thiadiazol-3-yl)piperazine-1-carboxamide]	< 50 nM
CCN(CC)CC(=O)Nc1cc(COc2nsnc2N2CCN(C(=O)Nc3cc(C(F)(F)F)cc(C(F)(F)F)c3)CC2)ccn1 [Example 156, N-[3,5-bis(trifluoromethyl)phenyl]-4-{4-[({2-[(N,N-diethylglycyl)amino]pyridin-4-yl}methyl)oxy]-1,2,5-thiadiazol-3-yl}piperazine-1-carboxamide]	50 to 1000 nM
CCN1CCC(OC(=O)Nc2cc(COc3nsnc3N3CCN(C(=O)Nc4cc(C(F)(F)F)cc(C(F)(F)F)c4)CC3)ccn2)CC1 [Example 157, 1-ethylpiperidin-4-yl {4-[({4-[4-({[3,5-bis(trifluoromethyl)phenyl]amino}carbonyl)piperazin-1-yl]-1,2,5-thiadiazol-3-yl}oxy)methyl]pyridin-2-yl}carbamate]	< 50 nM
CCc1cccc(NC(=O)N2CCN(c3nsnc3OCc3ccnc(N)n3)CC2)c1 [Example 158, 4-(4-{[(2-aminopyrimidin-4-yl)methyl]oxy}-1,2,5-thiadiazol-3-yl)-N-(3-ethylphenyl)piperazine-1-carboxamide]	50 to 1000 nM
O=C(Nc1cc(C(F)(F)F)cc(C(F)(F)F)c1)N1CCN(c2nsnc2OCc2ccnc(N3CCOC3=O)c2)CC1 [Example 159, N-[3,5-bis(trifluoromethyl)phenyl]-4-[4-({[2-(2-oxo-1,3-oxazolidin-3-yl)pyridin-4-yl]methyl}oxy)-1,2,5-thiadiazol-3-yl]piperazine-1-carboxamide]	≥ 10000 nM
CCN(CC)CCOC(=O)Nc1cc(COc2nsnc2N2CCN(C(=O)Nc3cc(C(F)(F)F)cc(C(F)(F)F)c3)CC2)ccn1 [Example 160, 2-(diethylamino)ethyl {4-[({4-[4-({[3,5-bis(trifluoromethyl)phenyl]amino}carbonyl)piperazin-1-yl]-1,2,5-thiadiazol-3-yl}oxy)methyl]pyridin-2-yl}carbamate]	< 50 nM
CCc1cccc(NC(=O)N2CCN(c3ncccc3OCc3ccnc(NC(=O)OC)c3)CC2)c1 [Example 161, methyl [4-({[2-(4-{[(3-ethylphenyl)amino]carbonyl}piperazin-1-yl)pyridin-3-yl]oxy}methyl)pyridin-2-yl]carbamate]	< 50 nM
O=C(Nc1nccc(COc2nsnc2N2CCN(C(=O)Nc3cc(C(F)(F)F)cc(C(F)(F)F)c3)CC2)n1)OCCN1CCCC1 [Example 162, 2-pyrrolidin-1-ylethyl {4-[({4-[4-({[3,5-bis(trifluoromethyl)phenyl]amino}carbonyl)piperazin-1-yl]-1,2,5-thiadiazol-3-yl}oxy)methyl]pyrimidin-2-yl}carbamate]	50 to 1000 nM
O=C(Nc1nccc(COc2nsnc2N2CCN(C(=O)Nc3cc(C(F)(F)F)cc(C(F)(F)F)c3)CC2)n1)OCCN1CCCCC1 [Example 163, 2-piperidin-1-ylethyl {4-[({4-[4-({[3,5-bis(trifluoromethyl)phenyl]amino}carbonyl)piperazin-1-yl]-1,2,5-thiadiazol-3-yl}oxy)methyl]pyrimidin-2-yl}carbamate]	50 to 1000 nM
COC(=O)Nc1cc(COc2cccnc2N2CCN(C(=O)Nc3cccc(Br)c3)CC2)ccn1 [Example 164, methyl [4-({[2-(4-{[(3-bromophenyl)amino]carbonyl}piperazin-1-yl)pyridin-3-yl]oxy}methyl)pyridin-2-yl]carbamate]	< 50 nM
COC(=O)Nc1cc(COc2cccnc2N2CCN(C(=O)Nc3cccc(OC)c3)CC2)ccn1 [Example 165, methyl {4-[({2-[4-({[3-(methyloxy)phenyl]amino}carbonyl)piperazin-1-yl]pyridin-3-yl}oxy)methyl]pyridin-2-yl}carbamate]	50 to 1000 nM
COc1cccc(NC(=O)N2CCN(c3ncccc3OCc3ccnc(N)n3)CC2)c1 [Example 166, 4-(3-{[(2-aminopyrimidin-4-yl)methyl]oxy}pyridin-2-yl)-N-[3-(methyloxy)phenyl]piperazine-1-carboxamide]	50 to 1000 nM
CC(C)c1cccc(NC(=O)N2CCN(c3ncccc3OCc3ccnc(N)n3)CC2)c1 [Example 167, 4-(3-{[(2-aminopyrimidin-4-yl)methyl]oxy}pyridin-2-yl)-N-[3-(1-methylethyl)phenyl]piperazine-1-carboxamide]	< 50 nM
Nc1nccc(COc2cccnc2N2CCN(C(=O)Nc3cccc(OC(F)(F)F)c3)CC2)n1 [Example 168, 4-(3-{[(2-aminopyrimidin-4-yl)methyl]oxy}pyridin-2-yl)-N-{3-[(trifluoromethyl)oxy]phenyl}piperazine-1-carboxamide]	< 50 nM
Nc1nccc(COc2cccnc2N2CCN(C(=O)Nc3cc(C(F)(F)F)ccc3F)CC2)n1 [Example 169, 4-(3-{[(2-aminopyrimidin-4-yl)methyl]oxy}pyridin-2-yl)-N-[2-fluoro-5-(trifluoromethyl)phenyl]piperazine-1-carboxamide]	< 50 nM
CCc1cccc(NC(=O)Nc2cc(COc3cccnc3N3CCN(C(=O)Nc4cccc(CC)c4)CC3)ccn2)c1 [Example 170, N-(3-ethylphenyl)-4-[3-({[2-({[(3-ethylphenyl)amino]carbonyl}amino)pyridin-4-yl]methyl}oxy)pyridin-2-yl]piperazine-1-carboxamide]	< 50 nM
CCc1cccc(NC(=O)N2CCN(c3ncccc3OCc3ccnc(NC(=O)CN4CCN(C)CC4)c3)CC2)c1 [Example 171, N-(3-ethylphenyl)-4-(3-{[(2-{[(4-methylpiperazin-1-yl)acetyl]amino}pyridin-4-yl)methyl]oxy}pyridin-2-yl)piperazine-1-carboxamide]	< 50 nM
CCc1cccc(NC(=O)N2CCN(c3nsnc3OCc3ccnc(NC(=O)CN4CCN(C)CC4)c3)CC2)c1 [Example 172, N-(3-ethylphenyl)-4-(4-{[(2-{[(4-methylpiperazin-1-yl)acetyl]amino}pyridin-4-yl)methyl]oxy}-1,2,5-thiadiazol-3-yl)piperazine-1-carboxamide]	< 50 nM
CN1CCN(CC(=O)Nc2cc(COc3cccnc3N3CCN(C(=O)Nc4cc(C(F)(F)F)cc(C(F)(F)F)c4)CC3)ccn2)CC1 [Example 173, N-[3,5-bis(trifluoromethyl)phenyl]-4-(3-{[(2-{[(4-methylpiperazin-1-yl)acetyl]amino}pyridin-4-yl)methyl]oxy}pyridin-2-yl)piperazine-1-carboxamide]	< 50 nM
